Assay results published in patent US10344060B2 (priority 2013, dated 2019).
“And” between values parts separate entries of the source, which are not always exact repeats. Equal values may be shown once. Read-outs that look alike come from different tables or passages of the source.

Experiments:
Experiment in all cases: cell-based
hNav1.7 [1] = molecular target: T1, hNav1.7 (Homo sapiens, UniProt Q15858); settings: for IC50: read-out: IC50 (μM) Nav1.7
hNav1.5 = hNav1.5 (Homo sapiens, UniProt Q14524); settings: read-out: IC50 (μM) Nav1.5
hNav1.7 [2] = molecular target: T1, hNav1.7; type: cell-based; settings: read-out: PX hNav1.7 Tonic IC50
hNav1.4 [3] = molecular target: T2, hNav1.4 (Homo sapiens, UniProt P35499); type: cell-based; settings: for IC50: IonWorks Quattro, read-out: IC50 (μM) Nav1.4; for Nav1.4/Nav1.7: ratio of IonWorks Quattro IC50 values
hNav1.3 = hNav1.3 (Homo sapiens, UniProt Q9NY46); settings: IonWorks Quattro, read-out: IC50 (μM) Nav1.3
hNav1.4 [4] = molecular target: T2, hNav1.4; type: cell-based; settings: Table 12
hNav1.6 = hNav1.6 (Homo sapiens, UniProt Q9UQD0); type: cell-based; settings: Table 15; ratio of PX tonic IC50 values

T1 sequence (Q15858 whole entry): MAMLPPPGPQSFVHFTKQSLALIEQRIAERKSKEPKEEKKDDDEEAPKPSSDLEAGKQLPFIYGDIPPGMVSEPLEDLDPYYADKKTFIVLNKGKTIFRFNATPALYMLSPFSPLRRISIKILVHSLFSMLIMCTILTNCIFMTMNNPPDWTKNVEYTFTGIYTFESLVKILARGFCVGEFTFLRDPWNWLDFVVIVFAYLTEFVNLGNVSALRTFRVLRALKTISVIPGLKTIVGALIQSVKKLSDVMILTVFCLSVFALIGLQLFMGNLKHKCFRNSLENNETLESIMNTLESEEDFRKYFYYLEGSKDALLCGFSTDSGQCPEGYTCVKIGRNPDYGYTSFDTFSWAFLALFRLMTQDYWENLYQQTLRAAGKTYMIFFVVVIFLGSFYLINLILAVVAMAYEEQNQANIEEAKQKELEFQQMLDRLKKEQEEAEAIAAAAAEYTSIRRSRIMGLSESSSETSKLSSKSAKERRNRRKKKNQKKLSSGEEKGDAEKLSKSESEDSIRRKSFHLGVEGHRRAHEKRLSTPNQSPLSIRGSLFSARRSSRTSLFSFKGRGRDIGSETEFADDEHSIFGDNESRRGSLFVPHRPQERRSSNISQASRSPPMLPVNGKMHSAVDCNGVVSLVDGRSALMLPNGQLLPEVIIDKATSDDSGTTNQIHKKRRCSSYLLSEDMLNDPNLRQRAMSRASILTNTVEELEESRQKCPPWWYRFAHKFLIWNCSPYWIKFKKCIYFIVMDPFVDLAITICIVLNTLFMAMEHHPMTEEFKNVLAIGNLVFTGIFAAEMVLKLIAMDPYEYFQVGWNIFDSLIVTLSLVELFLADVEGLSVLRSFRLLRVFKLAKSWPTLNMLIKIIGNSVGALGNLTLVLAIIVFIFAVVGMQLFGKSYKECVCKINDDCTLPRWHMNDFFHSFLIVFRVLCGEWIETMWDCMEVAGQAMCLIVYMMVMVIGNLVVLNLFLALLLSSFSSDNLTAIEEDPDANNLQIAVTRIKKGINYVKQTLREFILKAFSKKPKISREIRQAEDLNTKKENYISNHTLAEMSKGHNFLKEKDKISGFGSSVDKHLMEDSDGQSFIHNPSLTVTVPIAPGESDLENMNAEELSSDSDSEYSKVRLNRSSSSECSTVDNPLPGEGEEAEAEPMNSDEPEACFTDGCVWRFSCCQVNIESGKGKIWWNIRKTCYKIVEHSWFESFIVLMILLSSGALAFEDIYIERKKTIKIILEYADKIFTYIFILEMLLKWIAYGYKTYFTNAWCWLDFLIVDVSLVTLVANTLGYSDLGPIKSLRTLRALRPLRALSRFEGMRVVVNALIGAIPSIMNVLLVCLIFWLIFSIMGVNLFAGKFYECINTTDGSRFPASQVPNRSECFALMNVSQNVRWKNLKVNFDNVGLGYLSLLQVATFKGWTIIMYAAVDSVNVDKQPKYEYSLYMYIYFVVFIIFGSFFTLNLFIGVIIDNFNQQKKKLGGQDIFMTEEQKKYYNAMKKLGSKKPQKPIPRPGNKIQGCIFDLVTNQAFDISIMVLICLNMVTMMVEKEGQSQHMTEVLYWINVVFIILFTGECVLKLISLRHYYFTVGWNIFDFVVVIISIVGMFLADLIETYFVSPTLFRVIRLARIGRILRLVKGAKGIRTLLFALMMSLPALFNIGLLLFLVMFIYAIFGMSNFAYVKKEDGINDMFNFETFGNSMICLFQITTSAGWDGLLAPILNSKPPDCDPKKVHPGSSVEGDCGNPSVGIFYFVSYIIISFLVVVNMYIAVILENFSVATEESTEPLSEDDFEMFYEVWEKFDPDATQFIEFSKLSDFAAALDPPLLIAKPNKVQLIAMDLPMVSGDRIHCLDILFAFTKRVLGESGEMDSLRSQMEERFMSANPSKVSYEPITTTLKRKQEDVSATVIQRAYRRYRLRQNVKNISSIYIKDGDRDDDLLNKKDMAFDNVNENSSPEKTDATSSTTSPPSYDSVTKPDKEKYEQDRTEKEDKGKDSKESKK
Sequence of hNav1.5 (Q14524 whole entry): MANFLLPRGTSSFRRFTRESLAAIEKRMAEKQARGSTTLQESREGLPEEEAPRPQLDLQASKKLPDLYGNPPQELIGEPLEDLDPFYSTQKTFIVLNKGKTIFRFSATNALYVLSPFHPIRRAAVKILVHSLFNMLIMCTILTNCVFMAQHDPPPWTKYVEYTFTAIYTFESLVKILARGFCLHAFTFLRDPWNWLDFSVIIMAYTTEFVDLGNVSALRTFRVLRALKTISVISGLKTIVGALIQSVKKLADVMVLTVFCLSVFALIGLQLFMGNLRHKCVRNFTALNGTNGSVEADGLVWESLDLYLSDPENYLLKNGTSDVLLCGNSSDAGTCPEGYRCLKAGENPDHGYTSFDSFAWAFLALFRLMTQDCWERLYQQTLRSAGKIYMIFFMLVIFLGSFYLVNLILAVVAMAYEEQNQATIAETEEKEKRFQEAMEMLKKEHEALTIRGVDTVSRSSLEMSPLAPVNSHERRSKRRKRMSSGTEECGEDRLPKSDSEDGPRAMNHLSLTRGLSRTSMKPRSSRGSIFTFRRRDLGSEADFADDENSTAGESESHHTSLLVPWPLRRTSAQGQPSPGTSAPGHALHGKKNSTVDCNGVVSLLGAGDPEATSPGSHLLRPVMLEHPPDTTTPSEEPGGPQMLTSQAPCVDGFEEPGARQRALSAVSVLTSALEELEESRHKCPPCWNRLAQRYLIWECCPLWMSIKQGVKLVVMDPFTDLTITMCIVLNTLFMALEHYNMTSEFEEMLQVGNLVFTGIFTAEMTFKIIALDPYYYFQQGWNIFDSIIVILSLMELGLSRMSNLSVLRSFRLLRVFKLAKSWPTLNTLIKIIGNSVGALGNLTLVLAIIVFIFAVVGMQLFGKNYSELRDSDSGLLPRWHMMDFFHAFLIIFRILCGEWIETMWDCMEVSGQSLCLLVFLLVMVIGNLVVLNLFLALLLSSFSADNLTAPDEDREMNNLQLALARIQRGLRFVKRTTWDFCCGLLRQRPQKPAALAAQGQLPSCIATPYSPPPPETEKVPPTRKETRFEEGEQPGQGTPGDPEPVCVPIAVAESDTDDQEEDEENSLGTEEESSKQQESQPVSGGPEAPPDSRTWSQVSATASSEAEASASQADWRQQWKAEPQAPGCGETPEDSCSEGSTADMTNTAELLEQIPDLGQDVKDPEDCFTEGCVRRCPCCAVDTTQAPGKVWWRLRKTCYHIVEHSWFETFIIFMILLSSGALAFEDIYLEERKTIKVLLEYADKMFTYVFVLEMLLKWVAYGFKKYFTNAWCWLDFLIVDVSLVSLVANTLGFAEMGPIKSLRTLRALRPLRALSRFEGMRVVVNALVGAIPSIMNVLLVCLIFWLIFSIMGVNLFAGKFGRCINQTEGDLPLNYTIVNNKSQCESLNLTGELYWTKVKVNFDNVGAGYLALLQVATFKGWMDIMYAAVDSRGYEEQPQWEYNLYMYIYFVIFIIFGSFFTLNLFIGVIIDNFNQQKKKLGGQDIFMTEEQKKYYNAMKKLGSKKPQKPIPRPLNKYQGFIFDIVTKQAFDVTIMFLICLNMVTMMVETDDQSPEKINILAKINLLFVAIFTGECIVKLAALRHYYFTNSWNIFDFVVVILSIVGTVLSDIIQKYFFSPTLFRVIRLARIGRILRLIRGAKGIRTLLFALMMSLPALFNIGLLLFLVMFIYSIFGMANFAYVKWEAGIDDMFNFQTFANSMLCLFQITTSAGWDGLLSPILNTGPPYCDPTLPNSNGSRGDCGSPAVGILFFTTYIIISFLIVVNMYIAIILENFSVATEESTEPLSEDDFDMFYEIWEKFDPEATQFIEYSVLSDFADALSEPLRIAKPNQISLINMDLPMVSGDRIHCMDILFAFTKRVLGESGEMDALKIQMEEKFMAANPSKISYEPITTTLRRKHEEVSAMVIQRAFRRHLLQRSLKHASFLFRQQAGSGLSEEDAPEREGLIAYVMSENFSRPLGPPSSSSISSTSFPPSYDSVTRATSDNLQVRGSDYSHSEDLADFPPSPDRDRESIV

CC[C@H](C)[C@H](NC(=O)[C@@H](NC(=O)[C@H](CCCCN)NC(=O)[C@H](CCCNC(=N)N)NC(=O)[C@@H]1CSSC[C@@H]2NC(=O)[C@H](C)NC(=O)[C@H](CCCNC(=N)N)NC(=O)[C@H](CCCCN)NC(=O)[C@H](CO)NC(=O)[C@H](CC(=O)O)NC(=O)[C@@H]3CSSC[C@H](NC(=O)[C@H](CCCNC(=N)N)NC(=O)[C@H](CC(C)C)NC(=O)CNC(=O)[C@H](CCC(=O)O)NC(=O)[C@H](CSSC[C@H](NC(=O)[C@@H](N)Cc4ccc(O)cc4)C(=O)N[C@@H](CCC(N)=O)C(=O)N[C@@H](CCCCN)C(=O)N[C@@H](Cc4c[nH]c5ccccc45)C(=O)N[C@@H](CCSC)C(=O)N[C@@H](Cc4c[nH]c5ccccc45)C(=O)N[C@@H]([C@@H](C)O)C(=O)N3)NC2=O)C(=O)N[C@@H](CCCCN)C(=O)N[C@@H](CC(C)C)C(=O)N[C@@H](Cc2c[nH]c3ccccc23)C(=O)N1)[C@@H](C)CC)C(=O)O [compound 1]
IC50 (hNav1.7 [1]): 0.17 µM | IC50 (hNav1.5; IonWorks Quattro, Table 6): > 5 µM | IC50 (hNav1.7 [2]; PatchXpress, tonic, Table 11): 13.1 nM

CC[C@H](C)[C@H](NC(=O)[C@@H](NC(=O)[C@H](CCCCN)NC(=O)[C@H](CCCNC(=N)N)NC(=O)[C@@H]1CSSC[C@@H]2NC(=O)[C@H](C)NC(=O)[C@H](CCCNC(=N)N)NC(=O)[C@H](CCCCN)NC(=O)[C@H](CO)NC(=O)[C@H](CC(=O)O)NC(=O)[C@@H]3CSSC[C@H](NC(=O)[C@H](CCCNC(=N)N)NC(=O)[C@H](CC(C)C)NC(=O)CNC(=O)[C@H](CCC(=O)O)NC(=O)[C@H](CSSC[C@H](NC(=O)[C@H](C)N)C(=O)N[C@@H](CCC(N)=O)C(=O)N[C@@H](CCCCN)C(=O)N[C@@H](Cc4c[nH]c5ccccc45)C(=O)N[C@@H](CCSC)C(=O)N[C@@H](Cc4c[nH]c5ccccc45)C(=O)N[C@@H]([C@@H](C)O)C(=O)N3)NC2=O)C(=O)N[C@@H](CCCCN)C(=O)N[C@@H](CC(C)C)C(=O)N[C@@H](Cc2c[nH]c3ccccc23)C(=O)N1)[C@@H](C)CC)C(N)=O [compound 3]
IC50 (hNav1.7 [1]): 0.004 µM | IC50 (hNav1.5; IonWorks Quattro, Table 6): 3.1 µM | IC50 (hNav1.4 [3]; Table 6): 0.07 µM | Nav1.4/Nav1.7 (hNav1.4 [3]; Table 6): 18 | IC50 (hNav1.3; Table 6): 0.04 µM

CC[C@H](C)[C@H](NC(=O)[C@@H](NC(=O)[C@H](CCCCN)NC(=O)[C@H](CCCNC(=N)N)NC(=O)[C@@H]1CSSC[C@@H]2NC(=O)[C@H](C)NC(=O)[C@H](CCCNC(=N)N)NC(=O)[C@H](CCCCN)NC(=O)[C@H](CO)NC(=O)[C@H](CC(=O)O)NC(=O)[C@@H]3CSSC[C@H](NC(=O)[C@H](CCCNC(=N)N)NC(=O)[C@H](CC(C)C)NC(=O)CNC(=O)[C@H](CCC(=O)O)NC(=O)[C@H](CSSC[C@H](NC(=O)[C@@H](N)Cc4ccc(O)cc4)C(=O)N[C@@H](CCC(N)=O)C(=O)N[C@@H](CCCCN)C(=O)N[C@@H](Cc4c[nH]c5ccccc45)C(=O)N[C@@H](C)C(=O)N[C@@H](Cc4c[nH]c5ccccc45)C(=O)N[C@@H]([C@@H](C)O)C(=O)N3)NC2=O)C(=O)N[C@@H](CCCCN)C(=O)N[C@@H](CC(C)C)C(=O)N[C@@H](Cc2c[nH]c3ccccc23)C(=O)N1)[C@@H](C)CC)C(N)=O [compound 7]
IC50 (hNav1.7 [1]): 0.094 µM | IC50 (hNav1.5; IonWorks Quattro, Table 6): > 5 µM | IC50 (hNav1.4 [3]; Table 6): 0.28 µM | Nav1.4/Nav1.7 (hNav1.4 [3]; Table 6): 3 | IC50 (hNav1.3; Table 6): 0.16 µM

CC[C@H](C)[C@H](NC(=O)[C@H](CCCNC(=N)N)NC(=O)[C@H](CCCCN)NC(=O)[C@H](CCCNC(=N)N)NC(=O)[C@@H]1CSSC[C@@H]2NC(=O)[C@H](C)NC(=O)[C@H](CCCNC(=N)N)NC(=O)[C@H](CCCCN)NC(=O)[C@H](CO)NC(=O)[C@H](CC(=O)O)NC(=O)[C@@H]3CSSC[C@H](NC(=O)[C@H](CCCNC(=N)N)NC(=O)[C@H](CC(C)C)NC(=O)CNC(=O)[C@H](CCC(=O)O)NC(=O)[C@H](CSSC[C@H](NC(=O)[C@@H](N)Cc4ccc(O)cc4)C(=O)N[C@@H](CCC(N)=O)C(=O)N[C@@H](CCCCN)C(=O)N[C@@H](Cc4c[nH]c5ccccc45)C(=O)N[C@@H](CCSC)C(=O)N[C@@H](Cc4c[nH]c5ccccc45)C(=O)N[C@@H]([C@@H](C)O)C(=O)N3)NC2=O)C(=O)N[C@@H](CCCCN)C(=O)N[C@@H](CC(C)C)C(=O)N[C@@H](Cc2c[nH]c3ccccc23)C(=O)N1)C(N)=O [compound 108]
IC50 (hNav1.5; IonWorks Quattro, Table 6): 1.8 µM | IC50 (hNav1.4 [3]; Table 6): 0.14 µM | IC50 (hNav1.3; Table 6): 0.06 µM

CC[C@H](C)[C@H](NC(=O)CNC(=O)[C@H](CCCCN)NC(=O)[C@H](CCCNC(=N)N)NC(=O)[C@@H]1CSSC[C@@H]2NC(=O)[C@H](C)NC(=O)[C@H](CCCNC(=N)N)NC(=O)[C@H](CCCCN)NC(=O)[C@H](CO)NC(=O)[C@H](CC(=O)O)NC(=O)[C@@H]3CSSC[C@H](NC(=O)[C@H](CCC(=O)O)NC(=O)[C@H](CC(C)C)NC(=O)CNC(=O)[C@H](CCC(=O)O)NC(=O)[C@H](CSSC[C@H](NC(=O)[C@@H](N)Cc4ccc(O)cc4)C(=O)N[C@@H](CCC(N)=O)C(=O)N[C@@H](CCCCN)C(=O)N[C@@H](Cc4c[nH]c5ccccc45)C(=O)N[C@@H](CCSC)C(=O)N[C@@H](Cc4c[nH]c5ccccc45)C(=O)N[C@@H]([C@@H](C)O)C(=O)N3)NC2=O)C(=O)N[C@@H](CCCCN)C(=O)N[C@@H](CC(C)C)C(=O)N[C@@H](Cc2c[nH]c3ccccc23)C(=O)N1)C(N)=O [compound 134]
Nav1.4/Nav1.7 (hNav1.7 [1]; ratio of IonWorks Quattro IC50 values, Nav1.4 over Nav1.7): 17 and 13 | IC50 (hNav1.5): 11.1 µM

CC[C@H](C)[C@H](NC(=O)[C@@H](NC(=O)[C@H](CCCCN)NC(=O)[C@H](CCCNC(=N)N)NC(=O)[C@@H]1CSSC[C@@H]2NC(=O)[C@H](C)NC(=O)[C@H](CCCNC(=N)N)NC(=O)[C@H](CCCCN)NC(=O)[C@H](CO)NC(=O)[C@H](CC(=O)O)NC(=O)[C@@H]3CSSC[C@H](NC(=O)[C@H](CCC(=O)O)NC(=O)[C@H](CC(C)C)NC(=O)CNC(=O)[C@H](CCC(=O)O)NC(=O)[C@H](CSSC[C@H](NC(=O)[C@@H](N)Cc4ccc(O)cc4)C(=O)N[C@@H](CCC(N)=O)C(=O)N[C@@H](CCCCN)C(=O)N[C@@H](Cc4c[nH]c5ccccc45)C(=O)N[C@@H](CCSC)C(=O)N[C@@H](Cc4c[nH]c5ccccc45)C(=O)N[C@@H](Cc4cn(CCCOCCOCCOCCOCCOCCOCCOCCOCCOCCOCCN)nn4)C(=O)N3)NC2=O)C(=O)N[C@@H](CCCCN)C(=O)N[C@@H](CC(C)C)C(=O)N[C@@H](Cc2c[nH]c3ccccc23)C(=O)N1)[C@@H](C)CC)C(N)=O [compound 171]
IC50 (hNav1.5; IonWorks Quattro, Table 9): 18.7 µM | IC50 (hNav1.4 [3]; Table 9): > 5 µM | Nav1.4/Nav1.7 (hNav1.4 [3]; Table 9): 1 | IC50 (hNav1.3; Table 9): > 5 µM

CC[C@H](C)[C@H](NC(=O)[C@H](CCCCN)NC(=O)[C@H](CCCNC(=N)N)NC(=O)[C@@H]1CSSC[C@@H]2NC(=O)[C@H](C)NC(=O)[C@H](CCCNC(=N)N)NC(=O)[C@H](CCCCN)NC(=O)[C@H](CO)NC(=O)[C@H](CC(=O)O)NC(=O)[C@@H]3CSSC[C@H](NC(=O)[C@H](CCC(=O)O)NC(=O)[C@H](CC(C)C)NC(=O)CNC(=O)[C@H](CCC(=O)O)NC(=O)[C@H](CSSC[C@H](NC(=O)[C@@H](N)Cc4ccc(O)cc4)C(=O)N[C@@H](CCC(N)=O)C(=O)N[C@@H](CCCCN)C(=O)N[C@@H](Cc4c[nH]c5ccccc45)C(=O)N[C@@H](CCSC)C(=O)N[C@@H](Cc4c[nH]c5ccccc45)C(=O)N[C@@H]([C@@H](C)O)C(=O)N3)NC2=O)C(=O)N[C@@H](CCCCN)C(=O)N[C@@H](CC(C)C)C(=O)N[C@@H](Cc2c[nH]c3ccccc23)C(=O)N1)C(=O)N[C@@H](Cc1cn(CCCOCCOCCOCCOCCOCCOCCOCCOCCOCCOCCN)nn1)C(N)=O [compound 188]
IC50 (hNav1.5; IonWorks Quattro, Table 9): 20.1 µM | IC50 (hNav1.4 [3]; Table 9): > 5 µM | Nav1.4/Nav1.7 (hNav1.4 [3]; Table 9): 1 | IC50 (hNav1.3; Table 9): > 5 µM

C#CC[C@H](N)C(=O)N[C@@H](Cc1ccc(O)cc1)C(=O)N[C@H]1CSSC[C@@H]2NC(=O)[C@@H]3CSSC[C@@H](C(=O)N[C@@H](CCCNC(=N)N)C(=O)N[C@@H](CCCCN)C(=O)N[C@@H](CCC(=O)O)C(=O)N[C@H](C(N)=O)[C@@H](C)CC)NC(=O)[C@H](Cc4c[nH]c5ccccc45)NC(=O)[C@H](CC(C)C)NC(=O)[C@H](CCCCN)NC(=O)[C@H](CSSC[C@H](NC(=O)[C@H]([C@@H](C)O)NC(=O)[C@H](Cc4c[nH]c5ccccc45)NC(=O)[C@H](CCCC)NC(=O)[C@H](CCc4ccccc4)NC(=O)[C@H](CCCCN)NC(=O)[C@H](CCC(N)=O)NC1=O)C(=O)N[C@@H](CC(=O)O)C(=O)N[C@@H](CO)C(=O)N[C@@H](CCCCN)C(=O)N[C@@H](CCCNC(=N)N)C(=O)N[C@@H](C)C(=O)N3)NC(=O)[C@H](CCCNC(=N)N)NC(=O)[C@H](CC(C)C)NC(=O)CNC(=O)[C@H](CCC(=O)O)NC2=O [compound 844]
IC50 (hNav1.7 [2]; Table 12, PatchXpress, tonic block): 0.599 nM | IC50 (hNav1.7 [2]; Table 15): 0.599 nM | IC50 (hNav1.4 [4]; PatchXpress, tonic block, read-out: PX hNav1.4 Tonic IC50): 258 nM | Nav1.4/Nav1.7 (hNav1.4 [4]; ratio of PX tonic IC50 values): 431 | Nav1.6/Nav1.7 (hNav1.6): 1666
